Experimental data as given in patent US8829067B2, “Polymerizable compositions with initiators containing several Ge atoms” (Ivoclar Vivadent AG, priority 2008, dated 2014).
Values joined by “and” are separate entries in the source; they are usually repeats but may differ in a detail not shown here. Identical values can stand only once.

Tests used:
[1] = UV-VIS absorption of the photoinitiators; format: physicochemical; settings: for long-wave absorption maximum (λmax): UV-VIS; for extinction coefficient ε: at λmax
Source text: The photoinitiator di-Ge according to the invention with a long-wave absorption maximum of 400.5 nm has an extinction coefficient ε=3260 dm^2/mol which is thus more than twice that of benzoyltrimethylgermane mono-Ge (ε=1461 dm^2/mol), which leads to an improvement in photopolymerization activity. Compared with the Norrish type II photoinitiator camphorquinone widely used in the dental field, the extinction coefficient of which ε at λmax of 468 nm is only 380 dm^2/mol and which moreover requires an additional reducing agent, in most cases amine, for effective radical formation, the absorption maximum of di-Ge is clearly on a shorter wavelength and thus fades very well when irradiated.

[2] = background statement; cited from earlier work

Structure (SMILES) | long-wave absorption maximum (λmax) [1] [nm] | extinction coefficient ε [1] | absorption maximum wavelength [2] [nm]
CC12CCC(C(=O)C1=O)C2(C)C (stereo not shown) [camphorquinone] | 468 | 380 dm^2/mol | 468
[CH3][Ge]([CH3])([CH3])[C](=O)c1ccccc1 [mono-Ge, benzoyltrimethylgermanium] | 411.5 | 1374 dm^2/mol and 1461 dm^2/mol | 
[CH3][Ge]([CH3])([CH3])[C](=O)c1ccc(OCCCCCCOc2ccc([C](=O)[Ge]([CH3])([CH3])[CH3])cc2)cc1 [di-Ge, 1,6-bis[4-(trimethylgermylcarbonyl)phenoxy]hexane] | 400.5 | 3260 dm^2/mol | 
